Test results: patent publication US20050038035A1, “Heterocyclic amide compounds as apolipoprotein b inhibitors” (priority 2001, published 2005)

Key:
[1] = system: Apo B secretion; assay: Test 1: Measurement of Inhibition of Apo B Secretion (HepG2 cells, ELISA of medium); type: cell-based; conditions: Homo sapiens, 10^−8 M test compound, 15-hour incubation, 0.1% DMSO treated cells as controls
Protocol: HepG2 cells were seeded in Eagles medium containing 10% fetal calf serum (FCS) at a density of 30000 cells/well in 96-well plates and allowed to grow for 3 days before treatment. At this time, the medium was replaced with fresh medium containing 0.1% dimethyl sulfoxide (DMSO) and the indicated concentrations of a test compound. After 15-hour incubation, the amount of Apo B and Apo AI accumulated in the media was determined by ELISA.
The assay was carried out at ambient temperature. A flat bottomed micro ELISA plate (manufactured by Nunc) was coated with an anti Apo B monoclonal antibody solution ([…] in 0.05% carbonate buffer, pH 9.6).by adding the antibody solution at a volume of 100 μl per well. After 1-hour incubation on a plate mixer, the unbound materials were removed by washing the well 3 times with a washing buffer (phosphate buffered saline, pH 7.2 containing 0.1% bovine serum albumin and 0.05% Tween-20). Then 20 μl of […] and 100 μl of a solution of peroxidase coupled anti Apo B antibody were added. After 1-hour incubation on a plate mixer, washing was performed 3 times to remove the unbound materials. A freshly prepared substrate solution (2.5 mg/ml ortho-phenylene diamine and 0.018% H2O2 in 0.11 M Na2HPO4-0.044 M sodium citrate buffer, pH 5.4) at a volume of 200 μl was then added to each well. After 20-minute incubation, the enzyme reaction was terminated by adding 50 μl of 0.5 M sulfuric acid. Absorbance of each well was determined at 490 nm using a microplate reader. Apo B concentration was calculated from a standard curve generated from purified Apo B standard that was run in parallel in the same plate. Inhibition of Apo B secretion by the test compound is calculated taking 0.1% DMSO treated cells as controls.
Measurement of Apo AI was performed similar to that of Apo B, except for diluting the sample 11-fold with a dilution buffer (phosphate buffered saline, pH 7.2 containing 0.5% bovine serum albumin and 0.05% Tween-20).
Apo B secretion inhibitors are identified as compounds that decrease Apo B secretion without affecting the secretion of Apo AI.

[2] = system: ddY-mice; assay: Test 2: Lipids Lowering Effect on ddY-Mice (plasma cholesterol and triglyceride); type: in vivo; conditions: male ddY-mice, oral, 3.2 mg/kg in 0.5% methylcellulose, relative to baseline; for Cholesterol (% of 0 hr) 2 hr: plasma total-cholesterol 2 hours after administration; for Triglyceride (% of 0 hr) 2 hr: plasma triglyceride 2 hours after administration
Protocol: Male ddY-mice were housed in temperature- and humidity-controlled rooms and fed with laboratory chow. The animals were randomized according to their body weight and deprived of food just before the experiment. A blood sample (baseline blood sample) was collected from the retro orbital venous plexus before administration of the test drug, and then the animals were orally dosed with the test drug in a vehicle (aqueous solution of 0.5% methylcellulose). Blood samples were drawn at 2 hours after drug administration for the measurement of cholesterol and triglyceride.
Plasma total-cholesterol and plasma triglyceride were determined by conventional enzyme methods using commercially available kits. The cholesterol CII-Test Wako (Wako Pure Chemical Industries, Ltd.) was used for the measurement of cholesterol, and the triglyceride E-test Wako (Wako Pure Chemical Industries, Ltd.) was used for the measurement of triglyceride.
Lipids lowering effects were shown in percent relative to the baseline level (level at 0 hr).

[3] = system: ddY-mice; assay: Test 3: Lipid Lowering Effect on ddY-Mice (olive oil load, plasma TG elevation); type: in vivo; conditions: male ddY-mice fasted about 16 hours, oral, 0.32 mg/kg in olive oil (10 ml/kg), 2 hours; (TG increase in drug treated group/TG increase in control group)×100
Protocol: Male ddY-mice were housed in temperature- and humidity-controlled rooms and fed with laboratory chow. The animals were randomized according to their body weight and food was deprived about 16 hours before experiment. Baseline blood sample was collected from the retro orbital venous plexus then the animals were orally dosed with drugs in olive oil (10 ml/kg). For control group, 10 ml/kg of olive oil was loaded orally. Blood samples were drawn at 2 hours after drug administration for the measurement of triglyceride (TG) elevation. Plasma TG was determined by conventional enzyme method (The triglyceride E-test Wako).
Lipid lowering effects were shown in percent of the TG increase in drug treated group, relative to the TG increase in control group. Lipid lowering effect (%)=(TG increase in drug treated group/TG increase in control group)×100

| SMILES | inhibition at 0.01 µM [1] [%] | Cholesterol (% of 0 hr) 2 hr [2] | Triglyceride (% of 0 hr) 2 hr [2] | Lipid lowering effect (%) [3] [%] |
| --- | --- | --- | --- | --- |
| Cc1ccc(-c2ccc(Cl)cc2)c(C(=O)Nc2ccc(NCCc3ccccn3)cc2)c1 [Example 31, 4′-chloro-4-methyl-N-(4-{[2-(2-pyridinyl)ethyl]amino}phenyl)-1,1′-biphenyl-2-carboxamide] | 96 | 86 % of 0 hr | 36 % of 0 hr |  |
| Cc1ccc(C(=O)Nc2ccc(NCCc3ccccn3)cc2)c(-c2ccc(C(F)(F)F)cc2)c1 [Example 44, 5-methyl-N-(4-{[2-(2-pyridinyl)ethyl]amino}phenyl)-4′-(trifluoromethyl)-1,1′-biphenyl-2-carboxamide] | 83 | 80 % of 0 hr | 25 % of 0 hr |  |
| Cc1ccc(C(=O)Nc2ccc(NCCc3ccccn3)cc2)c(-c2ccc(F)cc2)c1 [Example 46, 4′-fluoro-5-methyl-N-(4-{[2-(2-pyridinyl)ethyl]amino}phenyl)-1,1′-biphenyl-2-carboxamide] | 94 | 79 % of 0 hr | 19 % of 0 hr |  |
| Cc1ccc(-c2ccc(C)cc2C(=O)Nc2ccc(NCCc3cccc(N)n3)cc2)cc1 [Example 53, N-(4-{[2-(6-amino-2-pyridinyl)ethyl]amino}phenyl)-4,4′-dimethyl-1,1′-biphenyl-2-carboxamide] | 84 | 71 % of 0 hr | 17 % of 0 hr |  |
| Cc1ccc(-c2ccc(Cl)cc2)c(C(=O)Nc2ccc(NCCc3cccc(N)n3)cc2)c1 [Example 55, N-(4-{[2-(6-amino-2-pyridinyl)ethyl]amino}phenyl)-4′-chloro-4-methyl-1,1′-biphenyl-2-carboxamide] | 86 | 75 % of 0 hr | 16 % of 0 hr |  |
| Cc1ccc(-c2ccc(F)cc2)c(C(=O)Nc2ccc(NCCc3cccc(N)n3)cc2)c1 [Example 56, N-(4-{[2-(6-amino-2-pyridinyl)ethyl]amino}phenyl)-4′-fluoro-4-methyl-1,1′-biphenyl-2-carboxamide] | 93 | 81 % of 0 hr | 31 % of 0 hr |  |
| N#Cc1cccc(CN2CCN(c3ccc(NC(=O)C4=C(c5ccc(C(F)(F)F)cc5)CCCC4)cn3)CC2)c1 [Example 212, N-{6-[4-(3-cyanobenzyl)-1-piperazinyl]-3-pyridinyl}-2-[4-(trifluoromethyl)phenyl]-1-cyclohexene-1-carboxamide] | 84 |  |  | 55 |
| O=C(Nc1ccc(NCCc2ccccn2)cc1)C1=C(c2ccc(C(F)(F)F)cc2)CCCCC1 [Example 232, N-(4-{[2-(2-pyridinyl)ethyl]amino}phenyl)-2-[4-(trifluoromethyl)phenyl]-1-cycloheptene-1-carboxamide] | 93 |  |  | 29 |
